Laboratory results taken from US20170172994A1, “COMPOSITIONS AND METHODS FOR TREATING BACTERIAL INFECTIONS” (WOCKHARDT LIMITED, priority 2013, published 2017).
Values after ≈ are worked out from the molar mass of the structure shown.

How the values were obtained:
[1] = tested on: P. mirabilis G 186; assay: Minimum filamentation / spheroplasting concentration; conditions: Proteus mirabilis, G186
Description: (§6) The term “MSC” as used herein refers to minimum spheroplasting concentration, which is the minimum concentration of an antibacterial agent at which about 80% of bacterial cells covert into spheroplasts.
(§7) The term “MFC” as used herein refers to minimum filamentation concentration, which is the minimum concentration of an antibacterial agent at which about 80% of bacterial cells get elongated to form filament like structures.

[2] = tested on: MDR Klebsiella pneumoniae B 88 producing NDM, SHV & TEM beta-lactamases; assay: Time kill study at MFC and MSC; format: cell-based; conditions: for Bacterial count: Cefepime 8 mcg/ml (MFC), Compound of Formula (III) 0.12 mcg/ml (MSC), Imepenem 8 mcg/ml
Method: (§1) The synergistic killing effect of the combinations according to invention was studied by performing time kill studies. In a typical time kill study, the freshly grown cultures were diluted to the required cell density (initial starting inoculum) in Cation adjusted Muller Hinton broth medium (BD, USA). The antibacterial agents (either alone or in combination) at the required concentrations were added into the culture-containing medium. The samples were incubated under shaking condition (120 rpm) at 37° C. Enumeration of viable bacterial count was done every 2 hour by diluting in normal saline and plating on to the Tryptic Soya Agar plates (BD, USA). The plates were incubated for 24 hours to arrive at the viable bacterial count. The results are expressed in terms of Log CFU per ml. In general, the decrease of 1 Log CFU/ml, corresponds to 90% killing of bacteria. Similarly, 2 Log CFU/ml reductions indicates to 99% killing of bacteria and 3 Log CFU/ml reductions is equal to 99.9% killing of bacteria.

[3] = tested on: MDR P. mirabilis G 186 producing NDM & TEM β-lactamases; assay: Time kill study at MFC and MSC; format: cell-based; conditions: for Bacterial count: Cefepime 8 mcg/ml (MFC), Compound of Formula (III) 0.25 mcg/ml (MSC), Imepenem 8 mcg/ml
Method: as §1

[4] = target: Pseudomonas PBP 5/6 (Pseudomonas aeruginosa, UniProt G3XD74); assay: PBP binding assay (Bocillin FL competition)
Method: (§2) The phrase “selective and high affinity PBP binder” refers to a PBP binder which binds to only one PBP with very high affinity. In general, the term “selective and high affinity PBP binder” also includes those binders where a substantial fraction of binder selectively binds to only one PBP with high affinity. […]. The term “IC50 value” of a compound refers to the concentration of the compound that reduces the binding of Bocillin-FL to PBPs by 50% as compared to when no compound was added to the reaction.
(§3) A compound of Formula (III) was prepared using the procedure disclosed in PCT International Application No. PCT/IB2012/054290 and was evaluated for its PBP binding affinity profile. […] The reaction mixtures were then denatured with 20 μl each of SDS-denaturing solution at 100° C. for 3 min PBPs were separated through 10% SDS polyacrylamide gel electrophoresis (Bio-Rad Laboratories, Hercules, Calif.). The protein gels were rinsed in water immediately after electrophoresis. […] […].

[5] = target: T1, Pseudomonas PBP 1A (Pseudomonas aeruginosa, UniProt Q07806); assay: PBP binding assay (Bocillin FL competition); conditions: Pseudomonas PBP 1A; read-out: IC50 (converted)
T1 construct: endogenous in cells
Method: as §2, §3

[6] = tested on: Acinetobacter baumannii NCTC 13304 producing carbapenem hydrolyzing Class D OXA enzyme (OXA 27); assay: Time kill study (viability count); format: cell-based; conditions: Cefepime 8 μg/ml, Compound of Formula (III) 8 μg/ml, Imipenem 16 μg/ml
Method: (§4) The antibacterial effectiveness of various antibacterial agents in presence of a compound of Formula (III) was investigated and the results are detailed below. In a typical study, overnight cultures in Trypticase soya broth (TSB) were brought to log phase by 1 in 10 dilution in fresh cation adjusted Mueller Hinton Broth (MHB) and incubation for 2.5 hours at 35° C. in orbital shaker. Log phase cultures were diluted to desired inoculums in flasks with MHB, containing various drug concentrations. Flasks were incubated at 35° C. in orbital shaker with rotational speed of 125 rpm. Viability count was determined by 1 in 10 serial dilutions of samples in normal saline and surface spreading of 10 μl of dilutions in duplicate on Trypticase soya agar plates. Plates were incubated for 24 hours at 35° C. and colonies were enumerated to determine the colony forming units (CFU) per ml volume.

[7] = tested on: Pseudomonas aeruginosa NCTC 13437 producing carbapenem hydrolyzing MBL (VIM 10) & Class A (VEB1); assay: Time kill study (viability count); format: cell-based; conditions: Cefepime 8 μg/ml, Compound of Formula (III) 8 μg/ml, Imipenem 16 μg/ml
Method: as §4

[8] = target: T2, Pseudomonas PBP 3 (Pseudomonas aeruginosa, UniProt G3XD46); assay: biochemical; format: binding
T2 construct: endogenous in cells
Method: The phrase “selective and high affinity PBP binder” refers to a PBP binder which binds to only one PBP with very high affinity. In general, the term “selective and high affinity PBP binder” also includes those binders where a substantial fraction of binder selectively binds to only one PBP with high affinity.
The reaction mixtures were then denatured with 20 μl each of SDS-denaturing solution at 100° C. for 3 min PBPs were separated through 10% SDS polyacrylamide gel electrophoresis (Bio-Rad Laboratories, Hercules, Calif.). The protein gels were rinsed in water immediately after electrophoresis.

[9] = tested on: K. pneumoniae B88; assay: MIC determination; format: cell-based; conditions: Klebsiella pneumoniae; K. pneumoniae B88 (NDM, SHV, TEM)
Method: (§5) In a typical procedure for determining MIC values, overnight grown bacterial cultures were diluted appropriately and inoculated on the agar media containing doubling concentrations of the test compounds. Observation for growth or no growth was performed after 16-20 hours of incubation at 35±2° C. in ambient air. The overall procedure was performed as per Clinical and Laboratory Standards Institute (CLSI) recommendations (Clinical and Laboratory Standards Institute (CLSI), Performance Standards for Antimicrobial Susceptibility Testing, 20th Informational Supplement, M 100-S20, Volume 30, No. 1, 2010).

[10] = tested on: P. mirabilis G 186; assay: MIC determination; format: cell-based; conditions: Proteus mirabilis, G186; P. mirabilis G 186 (NDM, TEM)
Method: as §5

[11] = tested on: K. pneumoniae B88; assay: Minimum filamentation / spheroplasting concentration; conditions: Klebsiella pneumoniae, B88
Description: as §6, §7

Pseudomonas PBP 5/6, sequence (G3XD74 entry or part of it): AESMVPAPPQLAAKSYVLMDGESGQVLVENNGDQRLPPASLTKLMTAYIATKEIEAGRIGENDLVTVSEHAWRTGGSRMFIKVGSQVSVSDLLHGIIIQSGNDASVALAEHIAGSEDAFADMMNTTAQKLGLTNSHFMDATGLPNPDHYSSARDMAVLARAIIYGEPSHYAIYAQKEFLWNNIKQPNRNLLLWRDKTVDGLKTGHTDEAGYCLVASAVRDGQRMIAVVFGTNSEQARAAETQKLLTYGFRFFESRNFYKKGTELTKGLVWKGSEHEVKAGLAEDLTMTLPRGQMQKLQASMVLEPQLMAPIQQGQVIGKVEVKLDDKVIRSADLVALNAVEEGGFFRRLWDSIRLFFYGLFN
T2 sequence (G3XD46 whole entry): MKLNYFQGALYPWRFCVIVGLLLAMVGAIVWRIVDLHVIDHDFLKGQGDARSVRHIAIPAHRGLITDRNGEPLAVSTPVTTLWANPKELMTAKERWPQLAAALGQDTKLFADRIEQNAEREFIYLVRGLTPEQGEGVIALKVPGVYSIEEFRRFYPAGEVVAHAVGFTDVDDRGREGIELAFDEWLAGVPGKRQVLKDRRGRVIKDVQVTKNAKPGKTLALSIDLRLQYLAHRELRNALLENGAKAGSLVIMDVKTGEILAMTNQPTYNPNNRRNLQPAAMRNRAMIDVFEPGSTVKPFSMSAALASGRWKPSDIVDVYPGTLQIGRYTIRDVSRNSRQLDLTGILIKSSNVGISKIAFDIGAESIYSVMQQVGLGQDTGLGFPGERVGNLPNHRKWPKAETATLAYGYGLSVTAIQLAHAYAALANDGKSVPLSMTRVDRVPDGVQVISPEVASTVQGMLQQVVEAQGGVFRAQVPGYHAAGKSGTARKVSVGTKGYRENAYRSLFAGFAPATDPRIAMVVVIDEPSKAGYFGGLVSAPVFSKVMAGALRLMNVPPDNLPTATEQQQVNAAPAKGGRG
T1 sequence (Q07806 whole entry): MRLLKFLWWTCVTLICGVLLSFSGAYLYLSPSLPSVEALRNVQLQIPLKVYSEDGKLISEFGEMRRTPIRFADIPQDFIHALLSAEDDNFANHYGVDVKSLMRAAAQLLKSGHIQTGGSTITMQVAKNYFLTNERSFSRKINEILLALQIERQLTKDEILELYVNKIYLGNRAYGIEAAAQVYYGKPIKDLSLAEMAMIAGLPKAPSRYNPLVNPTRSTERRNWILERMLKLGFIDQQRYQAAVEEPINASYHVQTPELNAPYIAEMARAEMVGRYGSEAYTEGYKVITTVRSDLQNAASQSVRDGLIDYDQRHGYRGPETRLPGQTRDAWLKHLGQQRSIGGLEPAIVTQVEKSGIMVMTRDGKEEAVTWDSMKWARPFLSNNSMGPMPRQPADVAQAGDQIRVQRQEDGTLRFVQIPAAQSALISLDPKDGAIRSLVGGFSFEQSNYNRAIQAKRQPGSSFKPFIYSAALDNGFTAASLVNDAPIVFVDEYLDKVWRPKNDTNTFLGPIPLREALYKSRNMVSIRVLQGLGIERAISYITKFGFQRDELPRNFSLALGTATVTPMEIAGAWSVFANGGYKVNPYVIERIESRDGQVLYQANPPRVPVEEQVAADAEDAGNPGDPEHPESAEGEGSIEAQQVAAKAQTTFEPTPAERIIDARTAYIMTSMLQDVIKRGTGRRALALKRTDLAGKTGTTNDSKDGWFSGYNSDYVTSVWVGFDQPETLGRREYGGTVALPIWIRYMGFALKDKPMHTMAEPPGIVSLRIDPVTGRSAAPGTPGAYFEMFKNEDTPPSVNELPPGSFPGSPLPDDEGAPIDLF

CO/N=C(\C(=O)N[C@@H]1C(=O)N2C(C(=O)[O-])=C(C[N+]3(C)CCCC3)CS[C@H]12)c1csc(N)n1 [Cefepime]
MFC [1]: 8 µg/mL (≈ 16.6 µM)
Bacterial count ([2]; 0 hour): 6.14 Log10 CFU/ml
Bacterial count ([2]; 2 hours): 6.65 Log10 CFU/ml
Bacterial count ([2]; 4 hours): 8.30 Log10 CFU/ml
Bacterial count ([2]; 6 hours): 9.11 Log10 CFU/ml
Bacterial count ([2]; 8 hours): 9.04 Log10 CFU/ml
Antibacterial activity (in words) ([2]; Klebsiella pneumoniae B 88, at MFC and MSC concentration, Table 13): did not exhibit antibacterial activity
Bacterial count ([3]; 0 hour): 6.58 Log10 CFU/ml
Bacterial count ([3]; 2 hours): 6.04 Log10 CFU/ml
Bacterial count ([3]; 4 hours): 7.93 Log10 CFU/ml
Bacterial count ([3]; 6 hours): 8.66 Log10 CFU/ml
Bacterial count ([3]; 8 hours): 8.85 Log10 CFU/ml
Antibacterial activity (in words) ([3]; P. mirabilis G 186, at MFC and MSC concentration, Table 14): did not exhibit antibacterial activity
IC50 [4]: > 8320 nM
IC50 [5]: 250 nM
Bacterial count ([6]; 0 hour): 6.3 log (CFU/ml)
Bacterial count ([6]; 2 hours): 7.3 log (CFU/ml)
Bacterial count ([6]; 4 hours): 7.5 log (CFU/ml)
Bacterial count ([6]; 6 hours): 7.8 log (CFU/ml)
Bacterial count ([6]; 8 hours): 8.0 log (CFU/ml)
Bacterial count ([7]; 0 hour): 6.0 log (CFU/ml)
Bacterial count ([7]; 2 hours): 6.49 log (CFU/ml)
Bacterial count ([7]; 4 hours): 7.74 log (CFU/ml)
Bacterial count ([7]; 6 hours): 8.02 log (CFU/ml)
Bacterial count ([7]; 12 hours): 8.8 log (CFU/ml)
IC50 [8]: 312 nM
MIC [9]: > 64 µg/mL
MIC [10]: > 64 µg/mL
MFC [11]: 8 µg/mL (≈ 16.6 µM)
